Data: patent publication US10961238B2, “Modulators of hedgehog (Hh) signaling pathway” (E-THERAPEUTICS PLC, priority 2016, dated 2021)

test system: C3H10T1/2 cells; experiment: C3H assay: differentiation of C3H10T1/2 cells by mSHH, measurement of alkaline phosphatase; type: cell-based, mouse; settings: C3H10T1/2 cells stimulated with mSHH for 72 hours; alkaline phosphatase activity; read-out: IC50 Ranges

| Compound | IC50 [nM] |
| --- | --- |
| O=C(OCc1cccc([N+](=O)[O-])c1)N1CC(S(=O)(=O)N2CCC(c3c[nH]c4ncccc34)CC2)C1 [Compound 213, (3-nitrophenyl) methyl 3-[4-(1H-pyrrolo[2,3-b]pyridin-3-yl)piperidin-1-yl]sulfonylaze-tidine-1-carboxylate] | < 10 |
| CC(C)(C)OC(=O)N1CCC(S(=O)(=O)N2CC=C(c3n[nH]c4ncccc34)CC2)CC1 [Compound 229, tert-butyl 4-[[4-(1H-pyrazolo[3,4-b]pyridin-3-yl)-3,6-dihydro-2H-pyridin-1-yl]sulfonyl] piperidine-1-carboxylate] | 1000 to 10000 |

same assay, conditions: Mus musculus, C3H 10T1/2, 72 h, read-out: IC50 Ranges

| Compound | IC50 [nM] |
| --- | --- |
| O=C(Oc1cccnc1)N1CC(S(=O)(=O)N2CCC(c3c[nH]c4ncccc34)CC2)C1 [Compound 212, pyridin-3-yl 3-[4-(1H-pyrrolo [2,3-b]pyridin-3-yl)piperidin-1-yl]sulfonylaze-tidine-1-carboxylate] | 10 to 100 |

same assay, conditions: Mus musculus, C3H 10T1/2; C3H10T1/2 cells stimulated with mSHH for 72 hours; alkaline phosphatase activity; read-out: IC50 Ranges

| Compound | IC50 [nM] |
| --- | --- |
| CCN(C(=O)N1CC(S(=O)(=O)N2CCC(c3c[nH]c4ncccc34)CC2)C1)C(C)C [Compound 206, N-ethyl-N-propan-2-yl-3-[4-(1H-pyrrolo[2,3-b]pyridin-3-yl)piperidin-1-yl]sulfonylaze-tidine-1-carboxamide] | 10 to 100 |
| O=C(OCc1cccc(Oc2ccccc2)c1)N1CC(S(=O)(=O)N2CCC(c3c[nH]c4ncccc34)CC2)C1 [Compound 207, (3-phenoxyphenyl) methyl 3-[4-(1H-pyrrolo [2,3-b]pyridin-3-yl)piperidin-1-yl]sulfonylaze-tidine-1-carboxylate] | 10 to 100 |
| Cc1cc(C)cc(OC(=O)N2CC(S(=O)(=O)N3CCC(c4c[nH]c5ncccc45)CC3)C2)c1 [Compound 208, (3,5-dimethylphenyl) 3-[4-(1H-pyrrolo[2,3-b]pyridin-3-yl)piperidin-1-yl]sulfonylaze-tidine-1-carboxylate] | 100 to 1000 |
| COc1ccc(COC(=O)N2CC(S(=O)(=O)N3CCC(c4c[nH]c5ncccc45)CC3)C2)cc1F [Compound 209, (3-fluoro-4-methoxyphenyl) methyl 3-[4-(1H-pyrrolo[2,3-b]pyridin-3-yl)piperidin-1-yl]sulfonylaze-tidine-1-carboxylate] | 10 to 100 |
| O=C(OC1CCNCC1)N1CC(S(=O)(=O)N2CCC(c3c[nH]c4ncccc34)CC2)C1 [Compound 210, piperidin-4-yl 3-[4-(1H-pyrrolo[2,3-b]pyridin-3-yl)piperidin-1-yl]sulfonylaze-tidine-1-carboxylate] | 100 to 1000 |
| CC(C)(C)OC(=O)N1CCC(OC(=O)N2CC(S(=O)(=O)N3CCC(c4c[nH]c5ncccc45)CC3)C2)CC1 [Compound 211, tert-butyl 4-[3-[4-(1H-pyrrolo[2,3-b]pyridin-3-yl)piperidin-1-yl]sulfonylaze-tidine-1-carbonyl] oxypiperidine-1-carboxylate] | 10 to 100 |
| COc1ccc(COC(=O)N2CC(S(=O)(=O)N3CCC(c4c[nH]c5ncccc45)CC3)C2)cc1 [Compound 214, (4-methoxyphenyl) methyl 3-[4-(1H-pyrrolo[2,3-b]pyridin-3-yl)piperidin-1-yl]sulfonylaze-tidine-1-carboxylate] | 10 to 100 |
| COc1cccc(OC(=O)N2CC(S(=O)(=O)N3CCC(c4c[nH]c5ncccc45)CC3)C2)c1 [Compound 215, (3-methoxyphenyl) 3-[4-(1H-pyrrolo[2,3-b]pyridin-3-yl)piperidin-1-yl]sulfonylaze-tidine-1-carboxylate] | 10 to 100 |
| O=C(OC1CCOCC1)N1CC(S(=O)(=O)N2CCC(c3c[nH]c4ncccc34)CC2)C1 [Compound 218, oxan-4-yl 3-[4-(1H-pyrrolo[2,3-b]pyridin-3-yl)piperidin-1-yl]sulfonylaze-tidine-1-carboxylate] | 10 to 100 |
| COc1ccc(OC(=O)N2CC(S(=O)(=O)N3CCC(c4c[nH]c5ncccc45)CC3)C2)cc1 [Compound 219, (4-methoxyphenyl) 3-[4-(1H-pyrrolo[2,3-b]pyridin-3-yl)piperidin-1-yl]sulfonylaze-tidine-1-carboxylate] | 10 to 100 |
| O=C(OC1COCOC1)N1CC(S(=O)(=O)N2CCC(c3c[nH]c4ncccc34)CC2)C1 [Compound 220, 1,3-dioxan-5-yl 3-[4-(1H-pyrrolo[2,3-b]pyridin-3-yl)piperidin-1-yl]sulfonylaze-tidine-1-carboxylate] | 10 to 100 |
| CC(C)(C)OC(=O)N1CC(S(=O)(=O)N2CCC(c3c[nH]c4nccc(F)c34)CC2)C1 [Compound 221, tert-butyl 3-[4-(4-fluoro-1H-pyrrolo[2,3-b]pyridin-3-yl)piperidin-1-yl]sulfonylaze-tidine-1-carboxylate] | 100 to 1000 |
| O=C(OC1COC1)N1CC(S(=O)(=O)N2CCC(c3c[nH]c4ncccc34)CC2)C1 [Compound 222, oxetan-3-yl 3-[4-(1H-pyrrolo[2,3-b]pyridin-3-yl)piperidin-1-yl]sulfonylaze-tidine-1-carboxylate] | 100 to 1000 |
| Cc1[nH]c2ncccc2c1C1CCN(S(=O)(=O)C2CN(C(=O)OC(C)(C)C)C2)CC1 [Compound 224] | 1000 to 10000 |

Continued, values first:

| IC50 [nM] | Compound |
| --- | --- |
| 1000 to 10000 | CC(C)(C)OC(=O)N1CC(S(=O)(=O)N2CCN(c3nsc4ccccc34)CC2)C1 [Compound 225, tert-butyl 3-[4-(1,H-benzothiazol-3-yl)piperazin-1-yl]sulfonylaze-tidine-1-carboxylate] |
| 1000 to 10000 | CC(C)(C)OC(=O)N1CC(S(=O)(=O)N2CCN(c3c[nH]c4ncccc34)CC2)C1 [Compound 226, tert-Butyl 3-[4-(1H-pyrrolo[2,3-b]pyridin-3-yl)piperazin-1-yl]sulfonylazetidine-1-carboxylate] |
| 1000 to 10000 | COc1ccc(N2CCN(S(=O)(=O)C3CCN(C(=O)OC(C)(C)C)CC3)CC2)cc1 [Compound 227, tert-butyl 4-[4-(4-methoxyphenyl)piperazin-1-yl]sulfonylpiper-idine-1-carboxylate] |
| 100 to 1000 | CC(C)(C)OC(=O)N1CCC(S(=O)(=O)N2CC=C(c3csc4cccnc34)CC2)CC1 [Compound 230, tert-butyl 4-[(4-thieno[3,2-b]pyridin-3-yl-3,6-dihydro-2H-pyridin-1-yl)sulfonyl]pip eridine-1-carboxylate] |
| 100 to 1000 | CC(C)(C)OC(=O)N1CC(S(=O)(=O)N2CC=C(c3coc4cccnc34)CC2)C1 [Compound 231, tert-butyl 3-[(4-furo[3,2-b]pyridin-3-yl-3,6-dihydro-2H-pyridin-1-yl)sulfonyl]aze tidine-1-carboxylate] |
| 100 to 1000 | CC(C)(C)OC(=O)N1CCC(S(=O)(=O)N2CC=C(c3coc4cccnc34)CC2)CC1 [Compound 232, tert-butyl 4-[(4-furo[3,2-b]pyridin-3-yl-3,6-dihydro-2H-pyridin-1-yl)sulfonyl]pip eridine-1-carboxylate] |
| 1000 to 10000 | CC(C)(C)OC(=O)N1CCC(S(=O)(=O)N2CC=C(c3c[nH]c4ncncc34)CC2)CC1 [Compound 233, tert-butyl 4-[[4-(7H-pyrrolo[2,3-d]pyrimidin-5-yl)-3,6-dihydro-2H-pyridin-1-yl]sulfonyl] piperidine-1-carboxylate] |
| 100 to 1000 | CC(C)(C)OC(=O)N1CC(S(=O)(=O)N2CC=C(c3cnc4occc4c3)CC2)C1 [Compound 234, tert-butyl 3-[(4-furo[2,3-b]pyridin-5-yl-3,6-dihydro-2H-pyridin-1-yl)sulfonyl]aze tidine-1-carboxylate] |
| 100 to 1000 | Cc1ccc(S(=O)(=O)n2cc(C3=CCN(S(=O)(=O)C4CCN(C(=O)OC(C)(C)C)CC4)CC3)c3cncnc32)cc1 [Compound 235, tert-butyl 4-[[4-[7-(4-methylphenyl)sulfonylpyrrolo[2,3-d]pyrimidin-5-yl]-3,6-dihydro-2H-pyridin-1-yl]sulfonyl] piperidine-1-carboxylate] |
| 1000 to 10000 | CC(C)(C)OC(=O)N1CCC(S(=O)(=O)N2CC=C(c3ccnc4[nH]ccc34)CC2)CC1 [Compound 236, tert-butyl 4-[[4-(1H-pyrrolo[2,3-b]pyridin-4-yl)-3,6-dihydro-2H-pyridin-1-yl]sulfonyl] piperidine-1-carboxylate] |
| 100 to 1000 | Cc1ccc(S(=O)(=O)n2ccc3c(C4=CCN(S(=O)(=O)C5CCN(C(=O)OC(C)(C)C)CC5)CC4)ccnc32)cc1 [Compound 237, tert-butyl 4-[[4-[1-(4-methylphenyl)sulfonylpyrrolo [2,3-b]pyridin-dihydro-2H-pyridin-1-yl]sulfonyl]piperidine-1-carboxylate] |
| 1000 to 10000 | CC(C)(C)OC(=O)N1CCC(S(=O)(=O)N2CC=C(c3ncnc4[nH]ccc34)CC2)CC1 [Compound 238, tert-butyl 4-[[4-(7H-pyrrolo[2,3-d]pyrimidin-4-yl)-3,6-dihydro-2H-pyridin-1-yl]sulfonyl] piperidine-l-carboxylate] |
| 1000 to 10000 | Cc1cc(C#N)ccc1N1CCN(S(=O)(=O)C2CN(C(=O)OC(C)(C)C)C2)CC1 [Compound 240, tert-butyl 3-[4-(4-cyano-2-methylphenyl)piperazin-1-yl]sulfonylaze-tidine-1-carboxylate] |
| 100 to 1000 | COC(=O)c1csc(N2CC(S(=O)(=O)N3CCC(c4c[nH]c5ncccc45)CC3)C2)n1 [Compound 241, methyl 2-[3-[4-(1H-pyrrolo[2,3-b]pyridin-3-yl)piperidin-1-yl]sulfonylaze-tidin-1-yl]-1,3-thiazole-4-carboxylate] |
| 10 to 100 | N#Cc1ccnc(N2CC(S(=O)(=O)N3CCC(c4c[nH]c5ncccc45)CC3)C2)c1 [Compound 242, 2-[3-[4-(1H-pyrrolo[2,3-b]pyridin-3-yl)piperidin-1-yl]sulfonylaze-tidin-1-yl] pyridine-4-carbonitrile] |
| 10 to 100 | CCOc1cccc(N2CC(S(=O)(=O)N3CCC(c4c[nH]c5ncccc45)CC3)C2)n1 [Compound 243, 3-[1-[1-(6-ethoxypyridin-2-yl)azetidin-3-yl]sulfonylpiper-idin-4-yl]-1H-pyrrolo[2,3-b]pyridine] |
| 100 to 1000 | COC(=O)c1cnc(N2CC(S(=O)(=O)N3CCC(c4c[nH]c5ncccc45)CC3)C2)s1 [Compound 245, methyl 2-[3-[4-(1H-pyrrolo[2,3-b]pyridin-3-yl)piperidin-1-yl]sulfonylaze-tidin-1-yl]-1,3-thiazole-5-carboxylate] |
